{"source": "patent US10561608B2", "about": "“Dry powder Vancomycin compositions and associated methods” (SAVARA INC., priority 2011, dated 2020)", "key": {"[1]": {"test": "Reconstituted pH of powder", "assay_type": "physicochemical", "details": "effect of leucine concentration", "excerpt": "In certain embodiments, the dry powder composition may be reconstituted and the resulting reconstituted powder may have a pH greater than 3.0, preferably greater than 3.5 and most preferably greater than 4.0.\nIn some embodiments, the delivery efficiency of dry powder vancomycin compositions may be improved through the addition of small amounts of leucine (FIG. 2). […] In addition, the addition of leucine results in powders with more physiologically acceptable pH values. See Table 1 below for the effect of leucine concentration on powder water content, particle size and reconstituted pH."}, "[2]": {"test": "Single dose plasma pharmacokinetics in healthy volunteers", "details": "human, in vivo, intravenous infusion 250 mg over 60 min, mean", "experimental": "FIG. 11 is a graph depicting plasma concentrations as a function of time (semi-log) after a single dose administration of a vancomycin dry powder composition (Lot G-11-026-1) or intravenous administration of vancomycin (inhaled vancomycin dose 16 mg, circle; inhaled vancomycin dose 32 mg, triangle; inhaled vancomycin dose 80 mg, square; Intravenous infusion 250 mg over 60 min, circle with line).\nIn some embodiments, the dry powder vancomycin compositions of the present disclosure may provide an absolute bioavailability of 40% or more. Absolute bioavailability is calculated as AUC0-inf of vancomycin after the vancomycin composition administration divided by AUC0-inf of vancomycin after intravenous administration and adjusted for dose.\nFollowing a single administration of a dry powder vancomycin composition (Lot […]) in eighteen healthy volunteers, a slow absorption phase followed by an elimination phase were observed. The main pharmacokinetic parameters after single dose administration of the inhaled vancomycin composition and intravenous vancomycin are shown in Table 7. AUC0-t refers to the area under the plasma concentration-time curve to the last measurable time point (24 h) calculated by the linear trapezoidal rule. AUC0-inf refers to the area under the concentration-time curve to infinity. Cmax refers to the maximum blood plasma concentration of vancomycin, and Tmax refers to the amount of time necessary to reach maximum blood plasma levels of vancomycin, and fin, refers to the elimination half-life associated with the terminal slope (Kel) of the semilogarithmic drug concentration-time curve, calculated as 0.693/Kel."}}, "note": "Where a name gives a salt, the structure may show the parent alone.", "data": [{"smiles": "CN[C@H](CC(C)C)C(=O)N[C@H]1C(=O)N[C@@H](CC(N)=O)C(=O)N[C@H]2C(=O)N[C@H]3C(=O)N[C@H](C(=O)N[C@H](C(=O)O)c4cc(O)cc(O)c4-c4cc3ccc4O)[C@H](O)c3ccc(c(Cl)c3)Oc3cc2cc(c3OC2O[C@H](CO)[C@@H](O)[C@H](O)[C@H]2O[C@H]2C[C@](C)(N)[C@H](O)[C@H](C)O2)Oc2ccc(cc2Cl)[C@H]1O", "note": "(stereo partly drawn) [API, Vancomycin hydrochloride]", "values": [{"measurement": "Reconstituted pH", "setting": "[1]", "result": 3.0}]}, {"smiles": "CN[C@H](CC(C)C)C(=O)N[C@H]1C(=O)N[C@@H](CC(N)=O)C(=O)N[C@H]2C(=O)N[C@H]3C(=O)N[C@H](C(=O)N[C@H](C(=O)O)c4cc(O)cc(O)c4-c4cc3ccc4O)[C@H](O)c3ccc(c(Cl)c3)Oc3cc2cc(c3OC2O[C@H](CO)[C@@H](O)[C@H](O)[C@H]2O[C@H]2C[C@](C)(N)[C@H](O)[C@H](C)O2)Oc2ccc(cc2Cl)[C@H]1O", "note": "(stereo partly drawn) [IV vancomycin, Vancomycin]", "values": [{"measurement": "AUC(0-inf)", "setting": "[2]", "result": 44400, "unit": "ng·h/mL"}, {"measurement": "Cmax", "setting": "[2]", "result": 10000, "unit": "ng/mL"}, {"measurement": "Tmax", "setting": "[2]", "result": 0.92, "unit": "h"}, {"measurement": "half-life", "setting": "[2]", "result": 7.23, "unit": "h"}, {"measurement": "AUC(0-t)", "setting": "[2]; t = 24 h", "result": 41000, "unit": "ng·h/mL"}]}]}
